In US20170135990A1, “PHARMACEUTICAL COMPOSITIONS COMPRISING A 5,5-FUSED HETEROARYLENE FLAVIVIRIDAE INHIBITOR AND THEIR USE FOR TREATING OR PREVENTING FLAVIVIRIDAE INFECTION” (IDENIX PHARMACEUTICALS LLC, priority 2014, published 2017):

Assays:
[1] = aqueous solubility and permeability, BCS classification; assay type: physicochemical
Source text: Compound A1 has a low aqueous solubility and low permeability and, thus, is classified as a BCS class IV compound, which presents a significant formulation challenge. Cook et al., AAPS J. 2008, 10, 306-310.

[2] = pharmacokinetic study in the monkey, PEG200 solution formulation; assay type: in vivo; conditions: 500 mg/kg, fed conditions
Method: Initial pharmacokinetic studies on compound A1 were performed both in vitro and in the monkey using a solution formulation containing PEG200. Compound A1 in the PEG200 solution was determined to have bioavailability of 0.1% F when administered at a dose of 500 mg/kg to the monkey under fed conditions.

aqueous solubility [1]: low
bioavailability [2]: 0.1 % F
Compound: COC(=O)N[C@H](C(=O)N1CCC[C@H]1c1nc2cc(-c3csc4c(-c5ccc(-c6cnc([C@@H]7CCCN7C(=O)[C@H](NC(=O)OC)c7ccccc7)[nH]6)cc5)csc34)ccc2[nH]1)C(C)C [compound A1, methyl N-[(1R)-2-[(2S)-2-[5-[4-[6-[2-[(2S)-1-[(2S)-2-(methoxycarbonylamino)-3-methyl-butanoyl]pyrrolidin-2-yl]-3H-benzimidazol-5-yl]thieno[3,2-b]thiophen-3-yl]phenyl]-1H-imidazol-2-yl]pyrrolidin-1-yl]-2-oxo-1-phenyl-ethyl]carbamate]
